The values that follow come from patent US20020127182A1, “Paramagnetic metal ion-based macrocylic magnetization transfer contrast agents and method of use” (Board of Regents, The University of Texas System, priority 2000, published 2002).

SMILES strings stand for the structures.

Common to all, as to format: physicochemical
The nature of data set [1]: Bound water lifetime τM^298 of Ln(1)^3+ complexes by fitting temperature dependent 17O NMR bound water line widths; exchange limit regime Δω•τM calculated. To be noted: for τM (bound water lifetime): Ln(1)^3+ complexes, 298 K. As for the experimental part:
A first experiment, examined the life times at 298° K, τM^298, of water molecules bound to various lanthanide-macrocylic complexes of the present invention, and having the general formula, Ln(1)^3+, where the four pendent arms R, R′, R″ and R″′ are all ethyl-acetamidoacetate (i.e., LnDOTA-4AmCE^3+), as depicted below: [drawing 4]
(§1) Individual τM^298 values were obtained by fitting the temperature dependent ^17O NMR bound water line widths according to standard exchange theory. […] Because the bulk water ^17O resonance of Yb(1) solution was relatively narrow at all temperatures, no attempt was made to determine τM^298 for this complex based on the ^17O NMR line width data from bulk water. However, a fit to the bound-water ^1H NMR line width gave a τM^298 of 5.8 μs for Yb(1), consistent with the trend shown in FIG. 3. Moreover, ^1H NMR line width fitting gave very similar results for those systems for which the bound water is directly observable.
(§2) As further illustrated in Table 1, the proton chemical shifts of bound water in these lanthanide-macrocylic complexes, δ, relative to bulk water, at 0 ppm are generally highly shifted, either more than 6 ppm downfield or upfield (i.e., ±6 ppm or more), depending upon the properties of the central lanthanide ions. At 1.5 Tesla (T), a magnetic field strength presently used by many commercial MRI scanners, the exchange limit regimes, Δω•τM, of Eu(1)^3+, Tb(1)^3+, Dy(1)^3+, and Ho(1)^3+ are all greater than 1. At higher fields, however, such as 4.7 T and 11.75 T, more lanthanide complexes have exchange limit regimes greater than 1, with Δω•τM increasing as field strength increases. Therefore, favorable MT contrast effects are available for a broad range of lanthanide-macrocylic complexes over a broad range of magnetic field strengths.

Data set [2] is described as follows: Proton chemical shift of bound water of Ln(1)^3+ complexes relative to bulk water (1H NMR). The conditions noted are these: relative to bulk water at 0 ppm.
Text: as §2, with “strengths. […]” for “strengths.”

Data set [3] can be described thus: MT profiles (Z-profiles, CEST profiles) of Ln(1)^3+ complexes at 4.7 T. To be noted: for bound water position at which saturating RF pulse is directed: bulk water at 0 ppm, aqueous 62.5 mM, neutral pH, about 22° C. As for the experimental part:
In a second experiment, MT profiles, also known as Z-profiles or CEST profiles, were obtained for lanthanide-macrocylic complexes of the general formula Ln(1)^3+. FIGS. 4-7 show representative spectra in the absence of saturation (bulk water peak at 0 ppm truncated to make the bound water peaks more visible) and MT profiles for Eu(1)^3+, Pr(1)^3+, Nd(1)^3+ and Yb(1)^3+ complexes, respectively, all measured at 4.7 T. All experiments were conducted using aqueous 62.5 mM Ln(1)^3+ adjusted to neutral pH and about 22° C., using an saturation duration time of 1 s, RF power of 16 db, and a 2.5 cm surface coil. […] Among these three complexes, Eu(1)^3+, shown in FIG. 4, had the greatest effect when the saturating pulse was centered at about 50 ppm (arrow): about a 60% decrease in the magnetization of bulk water, Ms, as compared to the magnetization of bulk water in the absence of a saturating pulse, Mo. Importantly, as indicated by a Ms/Mo of about 100%, when the counter-position (i.e., −50 ppm) was saturated, there was no distortion in the bulk water signal. Of course when the saturation pulse is directed to 0 ppm (arrow) there is no signal and therefore Ms/Mo is about 0%.

Data set [4] can be described thus: 1H NMR spectra of Ln(9)^3+ complexes, exchangeable amide protons. From the text:
For certain Ln(9)^3+ complexes, for example, with Ln equal to Yb or Tm, the bound water molecules are ^1H NMR invisible probably due to the fast exchange between the bound water and the bulk water. […] Unfortunately, the NMR signal was invisible, probably due to its fast exchange with the bulk water. However, the eight exchangeable amide protons present as two resonance peaks with equivalent intensity, at −14.5 (Ha) and −17.7 (Hb) ppm, respectively, are visible.

Data set [5] is described as follows: MT MR imaging of vial phantom with Ln(1)^3+ complexes at 4.7 T. The conditions noted are these: saturating bound water, 62.5 mM, neutral pH. As for the experimental part: A third series of experiments was performed to examine the ability of lanthanide-macrocylic complexes of the general formula Ln(1)^3+ to enhance MRI contrast by MT. […] The inner vial contains 62.5 mM Eu(1)^3+ or Nd(1)^3+ at neutral pH, while the outer vial is pure water. T1-weighted spin-echo images (TR/TE=500/18 ms, 256×256 data matrix) were obtained at about 22° C. and a field strength of 4.7 T. MT was achieved by applying RF irradiation for 1 s, with a power of 16 db by using a 2.5 cm surface coil. […] The inner vial contains 62.5 mM Nd(1)^3+ at neutral pH, while the outer vial is pure water. The irradiation duration time was 2 s, with a power of 41 db by using a 2.5 cm surface coil.
These levels of contrast are much better than expected for diamagnetic CAs where the resonance signal of the NH or OH group undergoing chemical exchange is only a few ppm away from the resonance signal of bulk water.

Data set [6] in a line: τM^298 from fit to bound-water 1H NMR line width.
Text: as §1

On to `CCOC(=O)CNC(=O)CN1CCN(CC(=O)NCC(=O)OCC)CCN(CC(=O)NCC(=O)OCC)CCN(CC(=O)NCC(=O)OCC)CC1.[Tm+3]` [Tm(1)^3+], for which the “Δω●τM (exchange limit regime)” value is on record as 0.6 in data set [1] (1.5 T), 1.9 in data set [1] (4.7 T) and 4.7 in data set [1] (11.75 T). Also, the “τM (bound water lifetime)” value in data set [1] is listed as 3 μs. Further, the “δ, proton chemical shift of bound water” value in data set [2] worked out at 500 ppm.
`CCOC(=O)CNC(=O)CN1CCN(CC(=O)NCC(=O)OCC)CCN(CC(=O)NCC(=O)OCC)CCN(CC(=O)NCC(=O)OCC)CC1.[Tb+3]` [Tb(1)^3+]: the “Δω●τM (exchange limit regime)” value in data set [1] (1.5 T, listed as Tb^3+) is 7.5; in data set [1] (4.7 T), 23.4; in data set [1] (11.75 T) it was 58.5. Moreover, in data set [1], the “τM (bound water lifetime)” value is given as 31 μs. In data set [2], the “δ, proton chemical shift of bound water” value is −600 ppm.
`CCOC(=O)CNC(=O)CN1CCN(CC(=O)NCC(=O)OCC)CCN(CC(=O)NCC(=O)OCC)CCN(CC(=O)NCC(=O)OCC)CC1.[Er+3]` [Er(1)^3+]: the “Δω●τM (exchange limit regime)” value in data set [1] (1.5 T) is recorded as 0.7; in data set [1] (4.7 T), 2.3; in data set [1] (11.75 T), 5.7. In data set [1], the “τM (bound water lifetime)” value is on record as 9 μs. In addition, in data set [2], the “δ, proton chemical shift of bound water” value was 200 ppm.
In the case of `CCOC(=O)CNC(=O)CN1CCN(CC(=O)NCC(=O)OCC)CCN(CC(=O)NCC(=O)OCC)CCN(CC(=O)NCC(=O)OCC)CC1.[Dy+3]` [Dy(1)^3+], the “Δω●τM (exchange limit regime)” value in data set [1] (1.5 T, listed as Dy^3+) was 4.9; in data set [1] (4.7 T), 15.4; in data set [1] (11.75 T), 38.5. Besides, in data set [1], the “τM (bound water lifetime)” value is given as 17 μs. In addition, in data set [2], the “δ, proton chemical shift of bound water” value is recorded as −720 ppm.
Consider `CCOC(=O)CNC(=O)CN1CCN(CC(=O)NCC(=O)OCC)CCN(CC(=O)NCC(=O)OCC)CCN(CC(=O)NCC(=O)OCC)CC1.[Ho+3]` [Ho(1)^3+], for which the “Δω●τM (exchange limit regime)” value is given as 2.8 in data set [1] (1.5 T, listed as Ho^3+); 8.6 in data set [1] (4.7 T); 21.5 in data set [1] (11.75 T). The “τM (bound water lifetime)” value in data set [1] was 19 μs. The “δ, proton chemical shift of bound water” value in data set [2] is −360 ppm.
Consider `CCOC(=O)CNC(=O)CN1CCN(CC(=O)NCC(=O)OCC)CCN(CC(=O)NCC(=O)OCC)CCN(CC(=O)NCC(=O)OCC)CC1.[Pr+3]` [Pr(1)^3+], for which the entries for the “Δω●τM (exchange limit regime)” value in data set [1] (1.5 T), in data set [1] (4.7 T) and in data set [1] (11.75 T) were 0.5, 1.5 and 3.8, respectively. Also, the “τM (bound water lifetime)” value in data set [1] is given as 20 μs. Besides, the “δ, proton chemical shift of bound water” value in data set [2] was −60 ppm. For the same molecule, the “bound water position at which saturating RF pulse is directed” value in data set [3] is −45 ppm.
Take `CCOC(=O)CNC(=O)CN1CCN(CC(=O)NCC(=O)OCC)CCN(CC(=O)NCC(=O)OCC)CCN(CC(=O)NCC(=O)OCC)CC1.[Sm+3]` [Sm(1)^3+]: the “Δω●τM (exchange limit regime)” value in data set [1] (1.5 T) was 0.5; in data set [1] (4.7 T), 1.6; in data set [1] (11.75 T), 4.0. Also, the “τM (bound water lifetime)” value in data set [1] is 320 μs. Also, the “δ, proton chemical shift of bound water” value in data set [2] is −4 ppm.
Regarding `NC(=O)CN1CCN(CC(N)=O)CCN(CC(N)=O)CCN(CC(N)=O)CC1.[Tm+3]` [Tm(9)^3+], in data set [4], the “chemical shift of amide protons, first set (Ha)” value is on record as −42 ppm and the “chemical shift of amide protons, second set (Hb)” value was −52 ppm.
In the case of `CCOC(=O)CNC(=O)CN1CCN(CC(=O)NCC(=O)OCC)CCN(CC(=O)NCC(=O)OCC)CCN(CC(=O)NCC(=O)OCC)CC1.[Eu+3]` [Eu(1)^3+], the “Δω●τM (exchange limit regime)” value is listed as 7.7 in data set [1] (1.5 T, listed as Eu^3+); 24.0 in data set [1] (4.7 T); 60.0 in data set [1] (11.75 T). The “τM (bound water lifetime)” value in data set [1] is 382 μs. The “δ, proton chemical shift of bound water” value in data set [2] turned out to be 50 ppm. For the same molecule, in data set [3], the “bound water position at which saturating RF pulse is directed” value was “+50 ppm”. In addition, in data set [3] (saturating pulse at about 50 ppm, 62.5 mM, 1 s, 16 db), the “decrease in the magnetization of bulk water, Ms, compared to Mo” value is about 60%. Further, the “Ms/Mo when counter-position saturated” value in data set [3] (saturation at −50 ppm, 62.5 mM) is “about 100%”. Further, in data set [5], the “decrease in the bulk water signal in the inner vials (MT images)” value is about 80%.
Consider `CCOC(=O)CNC(=O)CN1CCN(CC(=O)NCC(=O)OCC)CCN(CC(=O)NCC(=O)OCC)CCN(CC(=O)NCC(=O)OCC)CC1.[Nd+3]` [Nd(1)^3+], for which the “Δω●τM (exchange limit regime)” value in data set [1] (1.5 T) is recorded as 1.0; in data set [1] (4.7 T), 3.2; in data set [1] (11.75 T), 8.0. The “τM (bound water lifetime)” value in data set [1] is 80 μs. The “δ, proton chemical shift of bound water” value in data set [2] is −32 ppm. For the same molecule, the “decrease in the bulk water signal in the inner vials (MT images)” value in data set [5] was about 80%.
With `CCOC(=O)CNC(=O)CN1CCN(CC(=O)NCC(=O)OCC)CCN(CC(=O)NCC(=O)OCC)CCN(CC(=O)NCC(=O)OCC)CC1.[Yb+3]` [Yb(1)^3+], the “Δω●τM (exchange limit regime)” value in data set [1] (1.5 T) is 0.2; in data set [1] (4.7 T), 0.5; in data set [1] (11.75 T) it was 1.9. For the same molecule, the “τM (bound water lifetime)” value in data set [1] is recorded as 3 μs. The “τM^298 of bound water” value in data set [6] amounted to 5.8 μs. Moreover, the “δ, proton chemical shift of bound water” value in data set [2] was 200 ppm.
